ChEMBL document CHEMBL4251714, “Isolation, Characterization, and Structure-Activity Relationship Analysis of Abietane Diterpenoids from Callicarpa bodinieri as Spleen Tyrosine Kinase Inhibitors” (J Nat Prod, 2018)
Each block holds one compound with its values, some of them ahead of it.

Columns and labels:
[1] = Inhibition of PKA (unknown origin) by mobility shift assay; set-up: species or system Homo sapiens
[2] = biological target: T1, Tyrosine-protein kinase JAK3 (Homo sapiens, UniProt P52333); test: Inhibition of JAK3 (unknown origin) by mobility shift assay
T1 sequence (P52333 whole entry): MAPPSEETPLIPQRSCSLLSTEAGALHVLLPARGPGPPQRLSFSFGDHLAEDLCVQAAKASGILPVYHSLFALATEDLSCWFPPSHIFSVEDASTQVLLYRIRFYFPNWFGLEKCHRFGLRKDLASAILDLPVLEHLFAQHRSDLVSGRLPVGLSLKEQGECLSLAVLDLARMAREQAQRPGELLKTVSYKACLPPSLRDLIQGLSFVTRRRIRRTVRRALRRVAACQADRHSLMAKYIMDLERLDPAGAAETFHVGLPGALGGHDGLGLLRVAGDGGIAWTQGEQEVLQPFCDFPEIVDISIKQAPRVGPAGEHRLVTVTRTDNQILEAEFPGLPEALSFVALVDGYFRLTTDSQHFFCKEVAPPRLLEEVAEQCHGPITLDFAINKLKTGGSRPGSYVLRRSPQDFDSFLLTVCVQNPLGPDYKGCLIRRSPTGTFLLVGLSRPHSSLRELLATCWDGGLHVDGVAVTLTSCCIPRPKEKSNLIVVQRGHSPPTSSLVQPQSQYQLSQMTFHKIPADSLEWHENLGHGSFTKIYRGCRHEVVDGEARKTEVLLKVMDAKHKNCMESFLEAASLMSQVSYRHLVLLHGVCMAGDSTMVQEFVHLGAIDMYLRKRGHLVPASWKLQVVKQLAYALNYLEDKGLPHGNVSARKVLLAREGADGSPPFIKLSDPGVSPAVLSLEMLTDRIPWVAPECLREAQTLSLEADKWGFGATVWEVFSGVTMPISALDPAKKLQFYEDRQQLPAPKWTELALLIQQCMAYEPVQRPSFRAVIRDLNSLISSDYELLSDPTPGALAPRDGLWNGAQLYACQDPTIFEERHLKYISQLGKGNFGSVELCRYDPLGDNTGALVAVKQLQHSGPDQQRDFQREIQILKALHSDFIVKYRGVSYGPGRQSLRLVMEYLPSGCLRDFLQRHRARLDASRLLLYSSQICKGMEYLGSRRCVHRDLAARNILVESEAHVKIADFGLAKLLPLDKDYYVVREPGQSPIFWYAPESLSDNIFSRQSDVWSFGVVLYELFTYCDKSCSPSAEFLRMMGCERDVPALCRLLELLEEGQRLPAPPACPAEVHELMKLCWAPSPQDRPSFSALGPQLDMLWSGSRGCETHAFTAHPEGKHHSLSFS

Homo sapiens = organism: Homo sapiens; test: Inhibition of PKA (unknown origin) at 50 ug/ml by mobility shift assay relative to control
[3] = biological target: Proto-oncogene tyrosine-protein kinase Src (Homo sapiens) (UniProt P12931); test: Inhibition of SRC (unknown origin) at 50 ug/ml by mobility shift assay relative to control
[4] = biological target: Glycogen synthase kinase-3 beta (Homo sapiens) (UniProt P49841); test: Inhibition of GSK3b (unknown origin) at 50 ug/ml by mobility shift assay relative to control
[5] = biological target: Focal adhesion kinase 1 (Homo sapiens) (UniProt Q05397); test: Inhibition of FAK (unknown origin) at 50 ug/ml by Lanthascreen assay relative to control
[6] = biological target: T2, 3-phosphoinositide-dependent protein kinase 1 (Homo sapiens) (UniProt O15530); test: Inhibition of PDK1 (unknown origin) at 50 ug/ml by mobility shift assay relative to control
T2 sequence (whole entry): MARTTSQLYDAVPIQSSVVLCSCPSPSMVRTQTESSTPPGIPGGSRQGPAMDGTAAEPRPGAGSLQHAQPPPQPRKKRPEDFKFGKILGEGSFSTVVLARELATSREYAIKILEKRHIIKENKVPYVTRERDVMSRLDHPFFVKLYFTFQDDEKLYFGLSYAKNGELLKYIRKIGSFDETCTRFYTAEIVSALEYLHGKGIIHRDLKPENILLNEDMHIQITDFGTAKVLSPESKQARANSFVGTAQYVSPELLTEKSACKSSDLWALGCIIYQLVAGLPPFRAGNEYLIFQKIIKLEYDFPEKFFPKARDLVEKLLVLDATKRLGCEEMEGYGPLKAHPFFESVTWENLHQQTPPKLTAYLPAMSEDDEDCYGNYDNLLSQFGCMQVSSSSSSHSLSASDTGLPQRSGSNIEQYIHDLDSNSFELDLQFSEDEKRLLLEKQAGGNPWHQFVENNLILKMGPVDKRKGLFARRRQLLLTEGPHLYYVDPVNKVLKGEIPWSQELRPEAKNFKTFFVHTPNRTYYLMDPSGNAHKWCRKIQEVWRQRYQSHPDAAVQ

[7] = biological target: T3, Tyrosine-protein kinase ZAP-70 (Homo sapiens) (UniProt P43403); test: Inhibition of ZAP70 (unknown origin) at 50 ug/ml by mobility shift assay relative to control
T3 sequence (whole entry): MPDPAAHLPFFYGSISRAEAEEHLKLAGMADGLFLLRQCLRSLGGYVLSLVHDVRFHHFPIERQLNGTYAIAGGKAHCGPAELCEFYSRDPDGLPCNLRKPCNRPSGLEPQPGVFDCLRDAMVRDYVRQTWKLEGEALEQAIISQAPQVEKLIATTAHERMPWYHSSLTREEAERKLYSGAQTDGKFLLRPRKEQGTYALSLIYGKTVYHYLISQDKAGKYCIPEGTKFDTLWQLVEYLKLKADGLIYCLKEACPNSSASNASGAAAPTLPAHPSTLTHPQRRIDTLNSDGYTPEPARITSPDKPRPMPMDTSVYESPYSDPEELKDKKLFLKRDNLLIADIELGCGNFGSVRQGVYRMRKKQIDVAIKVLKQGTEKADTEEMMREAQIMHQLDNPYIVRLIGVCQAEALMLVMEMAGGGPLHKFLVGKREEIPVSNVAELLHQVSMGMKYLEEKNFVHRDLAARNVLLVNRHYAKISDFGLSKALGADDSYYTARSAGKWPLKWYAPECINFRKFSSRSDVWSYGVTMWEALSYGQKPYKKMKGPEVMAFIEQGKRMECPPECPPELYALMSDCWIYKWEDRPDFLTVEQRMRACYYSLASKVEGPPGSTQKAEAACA

[8] = biological target: Protein kinase C theta (Homo sapiens) (UniProt Q04759); test: Inhibition of PKCtheta (unknown origin) at 50 ug/ml by mobility shift assay relative to control
[9] = biological target: T4, JAK3 (Tyrosine-protein kinase JAK3) (Homo sapiens, UniProt P52333); test: Inhibition of JAK3 (unknown origin) at 50 ug/ml by mobility shift assay relative to control; conditions: JAK3 kinase (single protein, unknown origin)
T4 sequence (P52333 whole entry): T1 sequence (P52333 whole entry)

[10] = biological target: Serine/threonine-protein kinase B-raf (Homo sapiens) (UniProt P15056); test: Inhibition of BRAF (unknown origin) at 50 ug/ml by Lanthascreen assay relative to control
[11] = biological target: Serine/threonine-protein kinase pim-1 (Homo sapiens) (UniProt P11309); test: Inhibition of PIM1 (unknown origin) at 50 ug/ml by mobility shift assay relative to control
[12] = biological target: RAC-alpha serine/threonine-protein kinase (Homo sapiens) (UniProt P31749); test: Inhibition of AKT1 (unknown origin) at 50 ug/ml by mobility shift assay relative to control
[13] = biological target: ALK tyrosine kinase receptor (Homo sapiens) (UniProt Q9UM73); test: Inhibition of ALK (unknown origin) at 50 ug/ml by mobility shift assay relative to control
[14] = biological target: Tyrosine-protein kinase SYK (Homo sapiens) (UniProt P43405); test: Inhibition of SYK (unknown origin) at 50 ug/ml by mobility shift assay relative to control

Sequence of Proto-oncogene tyrosine-protein kinase Src (Homo sapiens) (P12931 2-536 limits assumed): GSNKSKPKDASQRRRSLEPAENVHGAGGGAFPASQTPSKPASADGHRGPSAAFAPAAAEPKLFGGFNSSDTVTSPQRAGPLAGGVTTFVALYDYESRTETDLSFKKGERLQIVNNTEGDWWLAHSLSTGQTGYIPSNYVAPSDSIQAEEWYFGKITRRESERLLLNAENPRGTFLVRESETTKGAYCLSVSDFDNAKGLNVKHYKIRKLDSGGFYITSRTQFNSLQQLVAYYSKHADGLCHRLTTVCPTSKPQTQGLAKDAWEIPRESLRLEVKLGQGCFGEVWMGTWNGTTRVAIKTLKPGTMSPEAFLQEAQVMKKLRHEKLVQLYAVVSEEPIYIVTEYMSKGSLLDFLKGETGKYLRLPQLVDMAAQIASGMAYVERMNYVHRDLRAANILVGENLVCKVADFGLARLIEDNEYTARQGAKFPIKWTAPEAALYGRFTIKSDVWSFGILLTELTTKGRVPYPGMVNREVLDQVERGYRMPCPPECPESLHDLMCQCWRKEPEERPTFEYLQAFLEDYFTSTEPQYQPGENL
Sequence of RAC-alpha serine/threonine-protein kinase (Homo sapiens) (P31749 whole entry): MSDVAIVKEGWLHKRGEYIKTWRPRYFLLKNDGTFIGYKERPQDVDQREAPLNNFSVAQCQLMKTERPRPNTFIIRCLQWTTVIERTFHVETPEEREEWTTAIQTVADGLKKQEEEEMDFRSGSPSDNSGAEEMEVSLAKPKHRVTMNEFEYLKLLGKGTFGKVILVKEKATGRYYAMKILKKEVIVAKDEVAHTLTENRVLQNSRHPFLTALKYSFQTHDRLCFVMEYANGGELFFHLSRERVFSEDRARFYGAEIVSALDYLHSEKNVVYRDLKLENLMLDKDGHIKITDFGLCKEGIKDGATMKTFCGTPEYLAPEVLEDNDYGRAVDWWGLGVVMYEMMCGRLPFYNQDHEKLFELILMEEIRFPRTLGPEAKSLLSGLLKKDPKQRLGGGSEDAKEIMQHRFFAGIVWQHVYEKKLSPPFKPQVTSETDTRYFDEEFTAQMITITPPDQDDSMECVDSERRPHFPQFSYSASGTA
Sequence of Protein kinase C theta (Homo sapiens) (Q04759 whole entry, looked up): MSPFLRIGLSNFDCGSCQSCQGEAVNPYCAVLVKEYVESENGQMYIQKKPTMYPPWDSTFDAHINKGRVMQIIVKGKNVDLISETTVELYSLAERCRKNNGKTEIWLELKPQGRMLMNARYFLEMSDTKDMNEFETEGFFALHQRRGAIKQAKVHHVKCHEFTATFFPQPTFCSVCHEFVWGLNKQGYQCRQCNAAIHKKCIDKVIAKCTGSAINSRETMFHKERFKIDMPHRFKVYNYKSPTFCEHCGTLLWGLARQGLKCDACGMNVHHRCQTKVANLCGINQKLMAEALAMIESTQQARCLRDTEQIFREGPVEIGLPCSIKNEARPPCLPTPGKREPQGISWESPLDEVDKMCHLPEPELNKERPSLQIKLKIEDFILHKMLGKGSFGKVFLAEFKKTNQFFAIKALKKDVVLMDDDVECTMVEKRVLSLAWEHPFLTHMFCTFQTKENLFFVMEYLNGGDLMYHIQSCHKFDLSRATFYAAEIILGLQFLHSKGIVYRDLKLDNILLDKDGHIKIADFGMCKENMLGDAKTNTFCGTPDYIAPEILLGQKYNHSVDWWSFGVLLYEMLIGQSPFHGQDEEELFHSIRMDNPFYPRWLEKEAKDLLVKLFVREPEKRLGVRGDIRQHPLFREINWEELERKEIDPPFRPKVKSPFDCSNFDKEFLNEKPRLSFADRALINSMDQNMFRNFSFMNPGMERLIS
Sequence of ALK tyrosine kinase receptor (Homo sapiens) (Q9UM73 19-1620 limits assumed): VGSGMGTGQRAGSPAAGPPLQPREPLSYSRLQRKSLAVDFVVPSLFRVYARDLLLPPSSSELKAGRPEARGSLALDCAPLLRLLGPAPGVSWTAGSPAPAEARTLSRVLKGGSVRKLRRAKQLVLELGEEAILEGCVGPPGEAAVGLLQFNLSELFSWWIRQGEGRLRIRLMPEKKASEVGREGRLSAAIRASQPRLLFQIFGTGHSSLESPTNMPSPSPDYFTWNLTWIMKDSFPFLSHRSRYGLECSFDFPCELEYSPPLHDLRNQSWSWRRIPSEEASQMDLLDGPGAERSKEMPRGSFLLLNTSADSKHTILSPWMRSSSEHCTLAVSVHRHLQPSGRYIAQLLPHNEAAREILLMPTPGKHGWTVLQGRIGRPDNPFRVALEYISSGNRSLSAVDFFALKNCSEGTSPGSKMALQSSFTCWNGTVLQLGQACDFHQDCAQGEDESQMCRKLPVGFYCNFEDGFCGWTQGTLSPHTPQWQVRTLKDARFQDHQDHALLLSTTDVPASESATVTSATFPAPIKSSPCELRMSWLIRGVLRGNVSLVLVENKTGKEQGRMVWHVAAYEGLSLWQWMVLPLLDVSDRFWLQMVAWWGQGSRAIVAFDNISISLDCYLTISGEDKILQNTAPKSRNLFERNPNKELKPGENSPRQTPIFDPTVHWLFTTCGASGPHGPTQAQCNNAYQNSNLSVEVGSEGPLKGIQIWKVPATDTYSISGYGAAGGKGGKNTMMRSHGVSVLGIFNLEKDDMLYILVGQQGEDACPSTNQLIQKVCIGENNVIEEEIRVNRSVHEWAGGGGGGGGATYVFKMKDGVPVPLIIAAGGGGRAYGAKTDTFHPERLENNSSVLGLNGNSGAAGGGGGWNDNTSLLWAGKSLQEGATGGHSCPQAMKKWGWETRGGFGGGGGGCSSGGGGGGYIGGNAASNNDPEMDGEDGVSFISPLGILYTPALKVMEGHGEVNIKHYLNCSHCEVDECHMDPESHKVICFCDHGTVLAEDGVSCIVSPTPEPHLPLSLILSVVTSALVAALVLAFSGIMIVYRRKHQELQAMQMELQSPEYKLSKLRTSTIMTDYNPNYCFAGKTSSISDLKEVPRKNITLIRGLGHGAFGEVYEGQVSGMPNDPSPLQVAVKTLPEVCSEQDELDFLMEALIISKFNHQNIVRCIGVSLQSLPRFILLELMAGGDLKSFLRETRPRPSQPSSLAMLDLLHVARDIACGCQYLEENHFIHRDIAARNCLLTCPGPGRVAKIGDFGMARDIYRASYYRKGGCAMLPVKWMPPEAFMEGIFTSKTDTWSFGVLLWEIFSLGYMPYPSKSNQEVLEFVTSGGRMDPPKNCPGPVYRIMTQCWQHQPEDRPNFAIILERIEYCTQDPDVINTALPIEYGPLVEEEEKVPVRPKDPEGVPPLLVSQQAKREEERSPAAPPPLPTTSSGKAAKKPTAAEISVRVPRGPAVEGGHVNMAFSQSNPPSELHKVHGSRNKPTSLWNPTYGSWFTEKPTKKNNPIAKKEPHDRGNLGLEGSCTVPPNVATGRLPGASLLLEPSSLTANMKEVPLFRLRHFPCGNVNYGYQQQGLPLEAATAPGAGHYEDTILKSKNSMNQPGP
Sequence of Focal adhesion kinase 1 (Homo sapiens) (Q05397 2-1052 limits assumed): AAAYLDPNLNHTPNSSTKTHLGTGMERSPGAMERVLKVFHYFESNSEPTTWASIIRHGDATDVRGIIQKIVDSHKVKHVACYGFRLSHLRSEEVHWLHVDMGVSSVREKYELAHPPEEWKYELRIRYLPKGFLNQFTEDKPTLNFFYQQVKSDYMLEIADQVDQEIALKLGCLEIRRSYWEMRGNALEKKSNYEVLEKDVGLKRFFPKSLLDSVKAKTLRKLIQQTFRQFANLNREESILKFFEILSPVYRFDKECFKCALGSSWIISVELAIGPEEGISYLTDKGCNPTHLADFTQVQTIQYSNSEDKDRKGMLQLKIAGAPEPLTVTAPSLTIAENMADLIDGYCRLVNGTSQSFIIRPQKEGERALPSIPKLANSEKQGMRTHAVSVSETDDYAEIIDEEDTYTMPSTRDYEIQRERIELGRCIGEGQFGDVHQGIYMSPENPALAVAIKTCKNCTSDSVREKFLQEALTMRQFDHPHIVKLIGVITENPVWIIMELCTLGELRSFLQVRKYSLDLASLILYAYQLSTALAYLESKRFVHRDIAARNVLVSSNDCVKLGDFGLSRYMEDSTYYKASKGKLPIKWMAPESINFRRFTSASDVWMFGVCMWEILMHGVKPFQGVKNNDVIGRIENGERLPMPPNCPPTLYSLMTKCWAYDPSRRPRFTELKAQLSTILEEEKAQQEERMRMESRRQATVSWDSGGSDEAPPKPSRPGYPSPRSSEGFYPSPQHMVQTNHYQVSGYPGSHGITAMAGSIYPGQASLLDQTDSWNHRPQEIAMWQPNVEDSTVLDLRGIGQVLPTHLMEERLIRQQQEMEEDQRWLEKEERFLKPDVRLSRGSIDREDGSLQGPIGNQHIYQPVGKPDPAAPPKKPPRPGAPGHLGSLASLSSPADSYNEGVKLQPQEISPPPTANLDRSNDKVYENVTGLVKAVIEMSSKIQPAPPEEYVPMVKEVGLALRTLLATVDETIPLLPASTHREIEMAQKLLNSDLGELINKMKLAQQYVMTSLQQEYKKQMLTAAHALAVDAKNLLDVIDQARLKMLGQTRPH
Sequence of Serine/threonine-protein kinase pim-1 (Homo sapiens) (P11309 whole entry, looked up): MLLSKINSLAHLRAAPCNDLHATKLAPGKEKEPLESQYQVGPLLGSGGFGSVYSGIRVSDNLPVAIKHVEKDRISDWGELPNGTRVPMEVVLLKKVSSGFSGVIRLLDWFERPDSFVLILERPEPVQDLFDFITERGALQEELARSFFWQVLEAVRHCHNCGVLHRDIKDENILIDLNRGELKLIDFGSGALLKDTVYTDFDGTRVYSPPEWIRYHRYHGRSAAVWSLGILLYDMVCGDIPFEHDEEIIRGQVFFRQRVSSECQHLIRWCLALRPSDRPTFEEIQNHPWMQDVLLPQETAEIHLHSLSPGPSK

SMILES: CN[C@@H]1C[C@H]2O[C@@](C)([C@@H]1OC)n1c3ccccc3c3c4c(c5c6ccccc6n2c5c31)C(=O)NC4
- IC50 [1]: 0.0022 µM

SMILES: C=C(C)c1ccc2c(c1)CC[C@H]1[C@@](CO)(C(=O)O)CCC[C@]21C
- IC50 [2]: > 100 µM

SMILES: CC(C)c1cc2c(cc1O)[C@@]1(C)CCC[C@@](C)(C=O)[C@@H]1CC2 [18-OXOFERRUGINOL]
- IC50 [2]: > 100 µM

SMILES: CC(C)c1ccc2c(c1)CC[C@H]1[C@](C)(C(=O)O)CCC[C@]21C [DEHYDROABIETIC ACID]
- inhibition (Homo sapiens): 69.9%
- inhibition [3]: 61.2%
- inhibition [4]: 20.1%
- inhibition [5]: 67.1%
- inhibition [6]: 46.1%
- inhibition [7]: 52.5%
- inhibition [8]: 0.9%
- inhibition at 50 ug/ml [9]: 74.9%
- inhibition [10]: -7.3%
- inhibition [11]: 10.7%
- inhibition [12]: 53.6%
- inhibition [13]: 17.6%
- inhibition [14]: 81%
- IC50 [2]: > 100 µM

Second part, the compound after the results:

- IC50 [2]: > 100 µM
SMILES: CC(C)c1ccc2c(c1)CC[C@H]1[C@@](CO)(C(=O)O)CCC[C@]21C

- IC50 [2]: > 100 µM
SMILES: CC(=O)c1ccc2c(c1)CC[C@H]1[C@@](CO)(C(=O)O)CCC[C@]21C

- IC50 [2]: > 100 µM
SMILES: CC(C)(O)c1ccc2c(c1)CC[C@H]1[C@](C)(C(=O)O)CCC[C@]21C
